Experimental data as given in patent publication US5091539A, “Azolyl cycloalkanol derivatives and agricultural fungicides” (Shionogi & Co., Ltd., priority 1984, dated 1992).

Tests used:
Format in all cases: in vivo
Sphaerotheca fuliginea [1] = assay: Control test to powdery mildew of cucumber (foliar and soil treatment); details: for Foliar Treatment, Curative Effect / Foliar Treatment, Protective Effect / Soil Treatment, Protective Effect / Powdery mildew, Foliar Treatment, Curative Effect / Powdery mildew, Foliar Treatment, Protective Effect / Powdery mildew, Soil Treatment, Protective Effect: index 0-10
Procedure: (1) Seeds of cucumber (Cultivar: Matsukaze) were sown in a pot of 9 cm in diameter and the pots were kept in a green house until the plant was grown for 2-3 leaf stage. The first leaf was sprayed with, (i) 3 ml each of solutions containing the test compound at the prescribed concetrations and dried by the air (foliar treatment). Inoculation of spore suspension of Sphaerotheca fuliginea by spraying was practised 2 days before the treatment (curative effect) or 1 day after the treatment (protective effect). Alternatively, (ii) 5 ml of the solution was applied at the root of the seedlings (soil treatment). The pots were kept in a greenhouse for 2 days and inoculation was practised in the same manner noted above. (iii) After sprayed with 3 ml of a solution of the test compound at a concentration of 125 ppm and dried by the air, the treated pots were set in a greenhouse. Untreated pots were placed next to the treated pots. Those treated and untreated plants were inoculated with spore suspension. Protective effect of the test compounds by vapor was thus checked. The effect was examined 14 days after the inoculation of the spores.
0: Disease sign is observed on the whole leaf.
3: Disease sign is observed on the leaf in about 50%.
5: Disease sign is observed on the leaf in about 30%.
7: Disease sign is observed on the leaf in about 20%.
9: a little disease sign is observed.
(§1) (1) Test methods and evaluation are the same as those in Tests 2, 4 and 6.

Botrytis cinerea = assay: Control test of Botrytis rot (gray mold) of cucumber
Procedure: (1) Seedlings of cucumber (Cultivar: Matsukaze) were planted in a pot of 9 cm in diameter. The first leaf was sprayed with 3 ml each of solutions containing the test compound at the concentration of 125 or 31.3 ppm and the plant was dried by the air. After inoculation of the spores of Botrytis cinerea, the plants were kept at 20°±2° C. and 90-100% humidity ((i) protective spraying). Alternatively, the spores were inoculated at first and when the leaves suffered a little (about 2 days after), the solutions of the test compounds were sprayed ((ii) curative spraying). Evaluation was practised 3 days after the inoculation. Percent disease control was calculated by the ratio of diameter of diseased area in treated and untreated plants.
as §1

Sphaerotheca fuliginea [2] = assay: Control test to powdery mildew of cucumber by vapor (filter paper disks)
Procedure: (1) The first leaves of young cucumber (Cultivar: Matsukaze) planted in pot of 9 cm in diameter were inoculated with spore suspension of Sphaerotheca fuliginea. After the plants were kept in a greenhouse for 2 days, thin cover plates, 15 mm in diameter, were put on the first leaves. Filter paper disks soaked with 80 μl of test solution at a concentration of 31.3, 7.8, 2.0 or 0.5 ppm were put on the plates for 3 days. Disease degrees were observed 14 days after the inoculation.
It is evaluated as + when an inhibition zone was observed around the plate, as ± when the inhibition zone has nearly the same diameter (8 mm) as that of plate or as - when there is no inhibition zone.
as §1

Sclerotinia sclerotiorum = assay: Control test to Sclerotinia rot of cucumber
From the text: (1) This test was practised in the same manner as in the above test, control test of Botrytis rot (gray mold) of cucumber, except for using the mycelium of Sclerotinia sclerotiorum as inoculm. The same as in test 2.

O[C@@]1(c2cccc(Cl)c2)CCCC[C@H]1n1cncn1 (relative stereo) [Compound 31]
Foliar Treatment, Curative Effect (Sphaerotheca fuliginea [1]; second Table 4, 0.5 ppm): 3 (Disease sign is observed on the leaf in about 50%.)
Foliar Treatment, Protective Effect (Sphaerotheca fuliginea [1]; second Table 4, 0.5 ppm): 0
Foliar Treatment, Curative Effect (Sphaerotheca fuliginea [1]; second Table 4, 2.0 ppm): 9
Foliar Treatment, Protective Effect (Sphaerotheca fuliginea [1]; second Table 4, 2.0 ppm): 0
Foliar Treatment, Curative Effect (Sphaerotheca fuliginea [1]; second Table 4, 7.8 ppm): 10
Foliar Treatment, Protective Effect (Sphaerotheca fuliginea [1]; second Table 4, 7.8 ppm): 9
Foliar Treatment, Curative Effect (Sphaerotheca fuliginea [1]; second Table 4, 31.3 ppm): 10
Foliar Treatment, Protective Effect (Sphaerotheca fuliginea [1]; second Table 4, 31.3 ppm): 10

O[C@@]1(c2ccc(Cl)c(Cl)c2)CCCC[C@H]1n1cncn1 (relative stereo) [Compound 33]
Foliar Treatment, Curative Effect (Sphaerotheca fuliginea [1]; second Table 4, 0.5 ppm): 3 (Disease sign is observed on the leaf in about 50%.)
Foliar Treatment, Protective Effect (Sphaerotheca fuliginea [1]; second Table 4, 0.5 ppm): 0
Soil Treatment, Protective Effect (Sphaerotheca fuliginea [1]; second Table 4, 0.5 ppm): 0
Foliar Treatment, Curative Effect (Sphaerotheca fuliginea [1]; second Table 4, 2.0 ppm): 10
Foliar Treatment, Protective Effect (Sphaerotheca fuliginea [1]; second Table 4, 2.0 ppm): 5 (Disease sign is observed on the leaf in about 30%.)
Soil Treatment, Protective Effect (Sphaerotheca fuliginea [1]; second Table 4, 2.0 ppm): 0
Foliar Treatment, Curative Effect (Sphaerotheca fuliginea [1]; second Table 4, 7.8 ppm): 10
Foliar Treatment, Protective Effect (Sphaerotheca fuliginea [1]; second Table 4, 7.8 ppm): 10
Soil Treatment, Protective Effect (Sphaerotheca fuliginea [1]; second Table 4, 7.8 ppm): 0
Foliar Treatment, Curative Effect (Sphaerotheca fuliginea [1]; second Table 4, 31.3 ppm): 10
Foliar Treatment, Protective Effect (Sphaerotheca fuliginea [1]; second Table 4, 31.3 ppm): 10
Soil Treatment, Protective Effect (Sphaerotheca fuliginea [1]; second Table 4, 31.3 ppm): 0

O[C@@]1(c2ccc(Cl)c(Cl)c2)CCCCC[C@H]1n1cncn1 (relative stereo) [Compound 34]
Foliar Treatment, Curative Effect (Sphaerotheca fuliginea [1]; second Table 4, 0.5 ppm): 5 (Disease sign is observed on the leaf in about 30%.)
Foliar Treatment, Protective Effect (Sphaerotheca fuliginea [1]; second Table 4, 0.5 ppm): 0
Soil Treatment, Protective Effect (Sphaerotheca fuliginea [1]; second Table 4, 0.5 ppm): 0
Foliar Treatment, Curative Effect (Sphaerotheca fuliginea [1]; second Table 4, 2.0 ppm): 10
Foliar Treatment, Protective Effect (Sphaerotheca fuliginea [1]; second Table 4, 2.0 ppm): 0
Soil Treatment, Protective Effect (Sphaerotheca fuliginea [1]; second Table 4, 2.0 ppm): 0
Foliar Treatment, Curative Effect (Sphaerotheca fuliginea [1]; second Table 4, 7.8 ppm): 10
Foliar Treatment, Protective Effect (Sphaerotheca fuliginea [1]; second Table 4, 7.8 ppm): 9
Soil Treatment, Protective Effect (Sphaerotheca fuliginea [1]; second Table 4, 7.8 ppm): 0
Foliar Treatment, Curative Effect (Sphaerotheca fuliginea [1]; second Table 4, 31.3 ppm): 10
Foliar Treatment, Protective Effect (Sphaerotheca fuliginea [1]; second Table 4, 31.3 ppm): 10
Soil Treatment, Protective Effect (Sphaerotheca fuliginea [1]; second Table 4, 31.3 ppm): 0

O[C@@]1(c2cc(Cl)ccc2Cl)CCCC[C@H]1n1cncn1 (relative stereo) [Compound 35]
Foliar Treatment, Curative Effect (Sphaerotheca fuliginea [1]; second Table 4, 0.5 ppm): 10
Foliar Treatment, Protective Effect (Sphaerotheca fuliginea [1]; second Table 4, 0.5 ppm): 5 (Disease sign is observed on the leaf in about 30%.)
Soil Treatment, Protective Effect (Sphaerotheca fuliginea [1]; second Table 4, 0.5 ppm): 0
Foliar Treatment, Curative Effect (Sphaerotheca fuliginea [1]; second Table 4, 2.0 ppm): 10
Foliar Treatment, Protective Effect (Sphaerotheca fuliginea [1]; second Table 4, 2.0 ppm): 10
Soil Treatment, Protective Effect (Sphaerotheca fuliginea [1]; second Table 4, 2.0 ppm): 0
Foliar Treatment, Curative Effect (Sphaerotheca fuliginea [1]; second Table 4, 7.8 ppm): 10
Foliar Treatment, Protective Effect (Sphaerotheca fuliginea [1]; second Table 4, 7.8 ppm): 10
Soil Treatment, Protective Effect (Sphaerotheca fuliginea [1]; second Table 4, 7.8 ppm): 9
Foliar Treatment, Curative Effect (Sphaerotheca fuliginea [1]; second Table 4, 31.3 ppm): 10
Foliar Treatment, Protective Effect (Sphaerotheca fuliginea [1]; second Table 4, 31.3 ppm): 10
Soil Treatment, Protective Effect (Sphaerotheca fuliginea [1]; second Table 4, 31.3 ppm): 10

O[C@]1(c2ccc(Cl)cc2)CCCC[C@H]1n1cncn1 (relative stereo) [Trans-isomer of Compound 22, 1-(4-chlorophenyl)-2-(1,2,4-triazol-1-yl)cyclohexanol, reference compound]
Gray Mold, Percent Disease Control, Curative Spraying (Botrytis cinerea; Table 9, 7.8 ppm): 0%
Gray Mold, Percent Disease Control, Protective Spraying (Botrytis cinerea; Table 9, 7.8 ppm): 0%
Gray Mold, Percent Disease Control, Curative Spraying (Botrytis cinerea; Table 9, 31.3 ppm): 0%
Gray Mold, Percent Disease Control, Protective Spraying (Botrytis cinerea; Table 9, 31.3 ppm): 3%
Gray Mold, Percent Disease Control, Curative Spraying (Botrytis cinerea; Table 9, 125 ppm): 2%
Gray Mold, Percent Disease Control, Protective Spraying (Botrytis cinerea; Table 9, 125 ppm): 3%
Powdery mildew, Vapor Effect (Sphaerotheca fuliginea [2]; Table 9, 2.0 ppm): -
Powdery mildew, Vapor Effect (Sphaerotheca fuliginea [2]; Table 9, 7.8 ppm): -
Powdery mildew, Vapor Effect (Sphaerotheca fuliginea [2]; Table 9, 31.3 ppm): -
Powdery mildew, Foliar Treatment, Curative Effect (Sphaerotheca fuliginea [1]; Table 9, 0.03 ppm): 0
Powdery mildew, Foliar Treatment, Protective Effect (Sphaerotheca fuliginea [1]; Table 9, 0.03 ppm): 0
Powdery mildew, Foliar Treatment, Curative Effect (Sphaerotheca fuliginea [1]; Table 9, 0.12 ppm): 0
Powdery mildew, Foliar Treatment, Protective Effect (Sphaerotheca fuliginea [1]; Table 9, 0.12 ppm): 0
Powdery mildew, Foliar Treatment, Curative Effect (Sphaerotheca fuliginea [1]; Table 9, 0.5 ppm): 5 (Disease sign is observed on the leaf in about 30%.)
Powdery mildew, Foliar Treatment, Protective Effect (Sphaerotheca fuliginea [1]; Table 9, 0.5 ppm): 3 (Disease sign is observed on the leaf in about 50%.)
Powdery mildew, Soil Treatment, Protective Effect (Sphaerotheca fuliginea [1]; Table 9, 0.5 ppm): 0
Powdery mildew, Foliar Treatment, Curative Effect (Sphaerotheca fuliginea [1]; Table 9, 2.0 ppm): 9
Powdery mildew, Foliar Treatment, Protective Effect (Sphaerotheca fuliginea [1]; Table 9, 2.0 ppm): 10
Powdery mildew, Soil Treatment, Protective Effect (Sphaerotheca fuliginea [1]; Table 9, 2.0 ppm): 0
Powdery mildew, Soil Treatment, Protective Effect (Sphaerotheca fuliginea [1]; Table 9, 7.8 ppm): 0
Powdery mildew, Soil Treatment, Protective Effect (Sphaerotheca fuliginea [1]; Table 9, 31.3 ppm): 5 (Disease sign is observed on the leaf in about 30%.)

Cc1ccc2nc3sc(=O)sc3nc2c1 [Chinomethionat, reference compound]
Protective Index, Foliar Treatment (Sphaerotheca fuliginea [1]; first Table 4, 125 ppm, foliar, 14 days): 10

CCCCc1c(C)nc(N(C)C)nc1O [Dimethirimol, reference compound]
Protective Index, Soil Treatment (Sphaerotheca fuliginea [1]; first Table 4, 500 ppm, soil, 14 days): 5 (Disease sign is observed on the leaf in about 30%.)

CC(C)NC(=O)N1CC(=O)N(c2cc(Cl)cc(Cl)c2)C1=O [Iprodione, reference compound]
Percent Disease Control, Curative Spraying (Sclerotinia sclerotiorum; 31.3 ppm): 77%
Percent Disease Control, Protective Spraying (Sclerotinia sclerotiorum; 31.3 ppm): 100%
Percent Disease Control, Curative Spraying (Sclerotinia sclerotiorum; 125 ppm): 90%
Percent Disease Control, Protective Spraying (Sclerotinia sclerotiorum; 125 ppm): 100%
Percent Disease Control, Curative Spraying (Botrytis cinerea; Table 2, 31.3 ppm): 64%
Percent Disease Control, Protective Spraying (Botrytis cinerea; Table 2, 31.3 ppm): 100%
Percent Disease Control, Curative Spraying (Botrytis cinerea; Table 2, 125 ppm): 90%
Percent Disease Control, Protective Spraying (Botrytis cinerea; Table 2, 125 ppm): 100%
